Results from patent publication US20230321043A1, “COMPOUNDS HAVING PSEUDOMONAS ANTI-BIOFILM PROPERTIES” (Københavns Universitet, priority 2020, published 2023).

Key:
Staphylococcus aureus = experiment: biofilm formation / dispersal, host range; format: cell-based; conditions: data not shown
wt P. aeruginosa biofilm [1] = experiment: time dependent liberation of bacteria from biofilm (CFU); format: cell-based, Pseudomonas aeruginosa; conditions: 25 μM, 18 hours old biofilm, FIG. 4C
Procedure: In a further experiment (FIG. 4C) the time dependent liberation of wt P. aeruginosa bacteria during H6-335-P1 induced dispersal performed in 48 well trays microtiter trays was determined. After 18 hours of growth in ABtrace media aliquots supplemented with 0.5% glucose, 0.5% Cas amino acids and 1 μM FeCl3 on a rotary shaker, 25 μM H6-335-P1 or 1% DMSO control was added. At the time-points indicated, samples were withdrawn and plated for CFU determinations. Average CFU's per ml for the 1% DMSO controls at each time point are set to 100.

wt P. aeruginosa biofilm [2] = experiment: biofilm inhibition, microtiter tray, crystal violet staining; format: cell-based, Pseudomonas aeruginosa; conditions: 8 hours
Procedure: Briefly, using a microtiter tray format, a 20 hour old culture of wt P. aeruginosa was diluted 1000 fold into 100 μL ABtrace media aliquots supplemented with 0.2% glucose, 0.5% Cas amino acids, 1 μM FeCl3, 0.2% DMSO and varying concentrations (100 μM, 50 μM, 25 μM, 12μM, 6 μM or 0 μM) of either H6-335-P1, H6-335, H6-335-SAR compound 26 or H6-335-SAR compound 25. The resulting microtiter trays were sealed with an air permeable lid, and biofilm cultures were grown on a rotary shaker at 37° C. and 160 RPM for 8 hours. After this, culture-supernatants were discarded and the remaining biomass was stained with crystal violet (Groizeleau et al., 2016). Finally, the amount of Crystal violet bound to the biofilm present in each well was plotted as a function of H6-335-P1, H6-335, H6-335-SAR compound 26 and H6-335-SAR compound 25 in the following concentrations: 100 μM, 50 μM, 25 μM, 12 μM, 6 μM or 0 μM (FIG. 4A). Means and standard deviations (bars) in FIG. 4A represents 4 biological replicates (n=4).

[3] = system: P. aeruginosa mPA01 wt and PDE mutants incl. PA4367 (bifA); experiment: dispersal of biofilms of PDE transposon mutants, crystal violet; format: cell-based, Pseudomonas aeruginosa; conditions: 18 hours old biofilm, two hours of treatment, FIG. 6A
Procedure: The inventors obtained mutants of all P. aeruginosa PDEs from the Washington P. aeruginosa mPAO1 transposon mutant library and investigated the ability of H6-335-P1 to disperse biofilms formed by each of these mutants in microtiter trays. […]
The resulting cultures were incubated at 37° C. on a rotary shaker (160 RPM) and biofilms were grown for 18 hours, at which time point either 2 μL of a 5 mM H6-335-P1 in 50% DMSO (+) or 2 μL of 50% DMSO (−) were added to each well. After two subsequent hours of growth, the culture supernatants were discarded and the amounts of biofilm present in the wells were quantified by crystal violet (CV) staining (Groizeleau et al., 2016).
The amounts of biofilm prevailing after two hours of treatments were determined for the wt strain mPA01 and each of the PDE mutants. […]

Burkholderia cenocepacia = experiment: biofilm formation / dispersal, host range; format: cell-based; conditions: data not shown
Text: (§1) To determine the host range of H6-335-P1, the inventors conducted a Blast search for analogs of the P. aeruginosa BifA phosphodiesterase protein encoded by gene PA4367 (bifA).

[4] = system: Stenotrophomonas maltophilia; experiment: biofilm formation / dispersal, host range; format: cell-based; conditions: data not shown
Text: as §1

Acinetobacter baumanii = experiment: biofilm formation / dispersal, host range; format: cell-based; conditions: data not shown
Text: as §1

Enterobacter cloacae = experiment: biofilm formation / dispersal, host range; format: cell-based; conditions: data not shown
Text: as §1

## N=C1NN=C(N)/C1=N/Nc1ccccc1F [H6-335-P1, 4-[(2-fluorophenyl) hydrazinylidene]pyrazole-3,5-diamine]
Staphylococcus aureus
  biofilm formation of Staphylococcus aureus: failed to reduce biofilm formation
Wt P. aeruginosa biofilm [1]
  dispersal of live bacteria from already formed biofilms: induced dispersal of live bacteria into the growth medium
Wt P. aeruginosa biofilm [2]; 100 μM, compared to untreated (DMSO control)
  reduction of biofilm formation: 98%
Wt P. aeruginosa biofilm [2]; 6 to 100 μM, FIG. 4A
  biofilm inhibition (dose-response, words): distinct concentration dependent biofilm inhibition
[3]
  induced dispersal of biofilm of the bifA mutant (PA4367): did not respond to H6-335-P1 induced dispersal
  induced dispersal of biofilms of P. aeruginosa wt and all the remaining PDE mutants: dispersed in response to H6-335-P1 exposure
Burkholderia cenocepacia
  biofilm formation of Burkholderia cenocepacia: failed to reduce biofilm formation
[4]
  biofilm formation of Stenotrophomonas maltophilia: failed to reduce biofilm formation
Acinetobacter baumanii
  biofilm formation of Acinetobacter baumanii: failed to reduce biofilm formation
Enterobacter cloacae
  biofilm formation of Enterobacter cloacae: failed to reduce biofilm formation
